Source: patent US20240317732A1, “A NEW MOLECULAR SCAFFOLD FOR TARGETING HRPN13” (THE UNITED STATES OF AMERICA AS REPRESENTED BY THE …, priority 2021, published 2024)
Entries after “also recorded” stand apart in the source; their conditions may differ.

What was measured:
RPMI 8226 cells = experiment: MTT cell metabolism / cell viability assay in RPMI 8226; type: cell-based
Method: (§1) Since previous hRpn13-targeting molecules induce apoptosis in multiple myeloma and colon cancer cells we tested whether XL5 restricts the RPMI 8226 multiple myeloma and HCT116 colon cancer cell lines by measuring metabolism with an MTT (3-(4,5-dimethylthiazol-2-yl)-2,5-diphenyltetrazolium bromide) assay. Experiments were also conducted in parallel with a HCT116 colon cancer cell line in which the exon encoding hRpn13 C88 is deleted, named trRpn13; this cell line expresses a truncated hRpn13 protein with a defective Pru and inability to bind the proteasome28. RPMI 8226 and WT (wild-type) or trRpn13 HCT116 cells seeded at 8,000 and 4,000 cells per well were treated with varying concentrations of XL5 extending to 40 μM and compared to cells incubated with equivalent amounts of DMSO vehicle control.
(§2) HCT116 WT or trRpn13 cells were seeded at 4,000 cells/well whereas RPMI 8226 cells were seeded at 8,000 cells/well with RPMI 1640 medium (no phenol red, Thermo Fisher Scientific 11835030) containing 2% fetal bovine serum in 96-well plates. Cells were treated with 0.4% DMSO (as a control) and this concentration was maintained with XL5, XL5-PROTACs XL5-VHL, XL5-VHL-2, XL5-CRBN, or XL5-IAP, and E3 ligands VHL-Ac, thalidomide (Selleckchem, catalog NO. S1193), or IAP-Bz at 10 μM, 20 μM, 30 μM or 40 μM concentration. After 48 hours, 0.35 mg/mL MTT was added for 4 hours of incubation. Stop solution (40% DMF, 10% SDS (W/V), 25 mM HCl, 2.5% acetic acid in H2O) was added to the cells and incubated overnight. Absorbance at 570 nm was measured by using CLARIOstar (BMG LABTECH).

RPMI 8226 WT cells = experiment: Apoptosis by cleaved caspase-9 immunoblot in RPMI 8226 WT; type: cell-based; settings: 40 μM PROTAC or 20 μM XL5-S2
Method: RPMI 8226 WT or trRpn13-MM2 (MM2) cells were treated with 40 μM XL5-VHL-2, 40 μM XL5-VHL-3 or DMSO (vehicle control) and the whole cell extract immunoprobed for hRpn13 or cleaved caspase-9 with β-actin as a loading control. A black asterisk indicates cleaved caspase-9 in the 2-min immunoblot for hRpn13, as hRpn13 was probed following cleaved caspase-9 and without stripping the membrane.
RPMI 8226 WT or trRpn13-MM2 cells were treated with 20 μM XL5-S2 or DMSO (vehicle control) and the whole cell extract immunoprobed for hRpn13 or cleaved caspase-9, with β-actin as a loading control. A black asterisk indicates cleaved caspase-9 in the 5-min immunoblot for hRpn13, as hRpn13 was probed following cleaved caspase-9 and without stripping the membrane.
HCT116 WT, HCT116 trRpn13, RPMI 8226 or 293T cells were collected and washed with PBS followed by lysing in 1% Triton-TBS lysis buffer (50 mM Tris-HCl, pH 7.5, 150 mM NaCl, 1 mM PMSF) supplemented with protease inhibitor cocktail (Roche). Total protein concentration was determined by bicinchoninic acid (Pierce). Protein lysates were prepared in 1χ LDS (ThermoFisher, NP0007) buffer with 100 mM DTT and heating at 70° C. for 10 min, loaded onto 4-12% Bis-Tris polyacrylamide gels (Life Technologies), subjected to SDS-PAGE and transferred to Invitrolon polyvinylidene difluoride membranes (Life Technologies). […]

MM.1S cells = experiment: MTT cell viability assay in MM.1S; type: cell-based; settings: read-out: XL5-VHL-2 Sensitivity (IC50, μM) Cell viability assay
Method: The mass spectra (upper panel) were deconvoluted from the UV peak (lower panel) indicated with a black arrow. […] Viability is calculated as (λ570)sample/(λ570)control×100(%). […] Immunoprobing for cleaved caspase-9 and hRpn13 was done separately with re-probing for β-actin. […] A dashed line indicates the value […].

[1] = tested on: RPMI 8226 trRpn13-MM2 cells; experiment: MTT cell viability assay in RPMI 8226 trRpn13-MM2; type: cell-based; settings: RPMI 8226 trRpn13-MM2, 48 hours, compared to WT
Method: FIGS. 11A-11C show hRpn13-Pru PROTACs with different linkers restrict cell viability in an hRpn13 Pru-dependent manner. RPMI 8226 WT (darker shades) or trRpn13-MM2 (lighter shades) cells were treated with the indicated concentration of XL5-VHL-2 (FIG. 11A), XL5-VHL-3 (FIG. 11A), XL5-VHL-4 (FIG. 11B) or XL5-VHL-5 (FIG. 11C) for 48 hours and cell metabolism measured by an MTT assay; data represent mean±SD of n=6 biological replicates. Viability is calculated as (λ570)sample/(λ570)control×100(%).

HCT116 WT cells = experiment: MTT cell metabolism / cell viability assay in HCT116 WT; type: cell-based; settings: read-out: XL5-VHL-2 Sensitivity (IC50, μM) Cell viability assay
Method: as §1
as §2, with “After 48 hours, 0.35 mg/mL MTT was added for 4 hours of incubation. Stop solution (40% DMF, 10% SDS (W/V), 25 mM HCl, 2.5% acetic acid in H2O) was added to the cells and incubated overnight.” left out

hRpn13 / hRpn13-Pru = experiment: Immunoblot of hRpn13 species in RPMI 8226 cell lysates; type: cell-based, human; settings: RPMI 8226, 40 μM, 24 hours
Method: HCT116 WT, HCT116 trRpn13, RPMI 8226 or 293T cells were collected and washed with PBS followed by lysing in 1% Triton-TBS lysis buffer (50 mM Tris-HCl, pH 7.5, 150 mM NaCl, 1 mM PMSF) supplemented with protease inhibitor cocktail (Roche). Total protein concentration was determined by bicinchoninic acid (Pierce). Protein lysates were prepared in 1χ LDS (ThermoFisher, NP0007) buffer with 100 mM DTT and heating at 70° C. for 10 min, loaded onto 4-12% Bis-Tris polyacrylamide gels (Life Technologies), subjected to SDS-PAGE and transferred to Invitrolon polyvinylidene difluoride membranes (Life Technologies). The membranes were blocked in Tris-buffered saline with 0.1% Tween-20 (TBST) supplemented with 5% skim milk, incubated with primary antibody, washed in TBST, incubated with secondary antibody and washed extensively in TBST. Pierce™ ECL Western Blotting Substrate (32106; Thermo Fisher Scientific) or Amersham™ ECL™ Primer Western Blotting Detection Reagent (cytiva) was used for antibody signal detection.
To test whether the XL5-PROTACs cause ubiquitination and degradation of hRpn13, lysates from RPMI 8226 (FIG. 5C) cells treated with 40 μM XL5 orXL5-PROTAC compared to DMSO vehicle control were immunoprobed for hRpn13 and β-actin (loading control).

In the case of `Cc1ncsc1-c1ccc([C@H](C)NC(=O)[C@@H]2C[C@@H](O)CN2C(=O)[C@@H](NC(=O)CCCCc2cn(-c3ccc(C(=O)Nc4cccc(/C=C(\C#N)C(=O)Nc5ccccc5C(=O)O)c4)cc3)nn2)C(C)(C)C)cc1` [XL5-VHL-2], the “metabolic activity / cell viability (MTT)” value (RPMI 8226 cells; RPMI 8226, 48 hours, up to 40 μM) is reported as “hook effect and lost”, the IC50 (RPMI 8226 cells; RPMI 8226, read-out: XL5-VHL-2 Sensitivity (IC50, μM) Cell viability assay) is reported as 4.2 ± 1 µM and the “apoptosis induction (cleaved caspase-9)” value (RPMI 8226 WT cells) is reported as “poorer induction of cleaved caspase-9”. The IC50 (MM.1S cells) was 5.9 ± 0.7 µM, the “cell viability (MTT)” value [1] was “loss of activity” and the IC50 (HCT116 WT cells) was 23.6 ± 4.7 µM. The “lower molecular weight hRpn13 species (hRpn13-Pru) level” value (hRpn13 / hRpn13-Pru) was “less hRpn13-Pru loss; also recorded: reduced in abundance” and the “higher molecular weight hRpn13 species characteristic of ubiquitination” value (hRpn13 / hRpn13-Pru; longer exposure) was “increase in higher molecular weight hRpn13 species”.
